According to patent publication EP1611112B1, “ISOXAZOLE COMPOUNDS AS INHIBITORS OF HEAT SHOCK PROTEINS” (Vernalis (Cambridge) Limited, priority 2003, dated 2004):

target: T1, human full-length HSP90 (Homo sapiens, UniProt P08238); test: Fluorescence Polarisation Assay (displacement of fluorescein-labelled probe RBT0045864-FAM); type: binding; conditions: Fluorescence Polarisation Assay, activity range
T1 construct: E. coli expressed human full-length HSP90 protein; made in house; host or cells: E. coli
Text: A Fluorescence Polarization_assay was also employed for the evaluation of some of the compounds of the Examples:
Fluorescence polarization {also known as fluorescence anisotropy} measures the rotation of a fluorescing species in solution, where the larger molecule the more polarized the fluorescence emission.
When the fluorophore is excited with polarized light, the emitted light is also polarized. The molecular size is proportional to the polarization of the fluorescence emission.
Test compound is added to the assay plate, left to equilibrate and the anisotropy measured again. Any change in anisotropy is due to competitive binding of compound to HSP90, thereby releasing probe.
Stored at room temperature. • 3) BSA (bovine serum albumen) 10 mg/ml (New England Biolabs # B9001S) • 4) 20 mM probe in 100 % DMSO stock concentration. Stored in the dark at RT. Working concentration is 200 nM diluted in AR water and stored at 4 °C.
1) Add 100µl 1x buffer to wells 11A and 12A (=FP BLNK) 2) Prepare assay mix - all reagents are kept on ice with a lid on the bucket as the probe is light-sensitive.
This gives 2.5 mM {50x} stock cpd - assuming cpds 20 mM. • 4) Repeat for wells A2 to A10. Control in columns 11 and 12. • 5) Transfer 5 µl from row A to row B- not column 12. Mix well. • 6) Transfer 5 µl from row B to row C. […] Add 2 µl of 100mM standard cpd to wells B12 - H12 {is positive control } • 13)The Z' factor is calculated from zero controls and positive wells.

T1 sequence (P08238 whole entry): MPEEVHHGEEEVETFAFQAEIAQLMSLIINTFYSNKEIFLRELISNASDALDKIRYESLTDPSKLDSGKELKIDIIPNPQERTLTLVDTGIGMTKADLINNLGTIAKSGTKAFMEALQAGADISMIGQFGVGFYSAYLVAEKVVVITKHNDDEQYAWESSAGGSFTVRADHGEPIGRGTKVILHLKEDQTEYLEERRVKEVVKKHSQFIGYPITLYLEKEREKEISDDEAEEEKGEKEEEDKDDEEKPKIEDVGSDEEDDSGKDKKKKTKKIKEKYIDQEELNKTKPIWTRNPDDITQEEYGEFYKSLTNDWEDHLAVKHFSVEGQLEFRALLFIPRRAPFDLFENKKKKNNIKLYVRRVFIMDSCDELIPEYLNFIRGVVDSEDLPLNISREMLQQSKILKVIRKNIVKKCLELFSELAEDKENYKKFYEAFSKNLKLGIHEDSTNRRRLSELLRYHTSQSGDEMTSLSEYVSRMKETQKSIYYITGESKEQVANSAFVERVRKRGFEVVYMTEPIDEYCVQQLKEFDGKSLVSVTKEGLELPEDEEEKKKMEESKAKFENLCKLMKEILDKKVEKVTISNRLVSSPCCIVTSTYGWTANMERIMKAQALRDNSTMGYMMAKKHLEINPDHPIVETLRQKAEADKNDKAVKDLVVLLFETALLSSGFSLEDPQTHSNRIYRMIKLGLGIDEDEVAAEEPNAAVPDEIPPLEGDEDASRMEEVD

Row | IC50 [µM] | Structure (SMILES)
1 | < 10 | COc1ccc(-c2c(C)noc2-c2cc(Br)c(O)cc2O)cc1 [Example 2, 4-Bromo-6-[4-(4-methoxy-phenyl)-3-methyl-isoxazol-5-yl]-benzene-1,3-diol]

target: T2, yeast HSP90 (Saccharomyces cerevisiae, UniProt P02829); test: Malachite Green ATPase assay; type: biochemical; conditions: activity range
T2 construct: made in house; host or cells: E. coli
Text: The intrinsic ATPase activity of HSP90 may be measured using yeast HSP90 as a model system. The assay, based on the use of malachite green for the measurement of inorganic phosphate, was used to test the HSP90 inhibitory activity of some of the compounds of the Examples herein.
Malachite Green ATPase Assay
Chemicals are of the highest purity commercially available and all aqueous solutions are made up in AR water. Because of the need to minimise contamination with inorganic phosphate, precautions should be taken with solutions and apparatus used in the assays. Glassware and pH meters are rinsed with double distilled or deionised water before use and, wherever possible, plastic ware should be used. Gloves are worn for all procedures. • (1) Greiner 384-well (Greiner 781101) or Costar 384-well flat-bottomed polystyrene multiwell plates (VWR). • (2) Assay buffer of (a) 100mM Tris-HCI, pH 7.4, (b) 150mM KCI, (c) 6mM MgCl2. Stored at room temperature. • (3) 0.0812% (w/v) malachite green (M 9636, Sigma Aldrich Ltd., Poole, UK). Stored at room temperature. • (4) 2.32% (w/v) polyvinyl alcohol USP (P 1097, Sigma Aldrich Ltd, Poole, UK) in boiling water (see Comment 1), allowed to cool, and stored at room temperature. • (5) 5.72% (w/v) ammonium molybdate in 6 M hydrochloric acid. Stored at room temperature. • (6) 34% (w/v) sodium citrate. Stored at room temperature. • (7) 100mM ATP, disodium salt, special quality (47699, Sigma Aldrich). Stored at -20°C. • (8) E. coli expressed yeast HSP90 protein, purified >95% (see, e.g., Panaretou et al., 1998) and stored in 50uL aliquots at -80°C.
• 1. Dilute test compounds to 500µM in AR water (DMSO concentration will be 2.5%). Transfer 2.5µl of these compounds directly from the daughter plate to the assay plate, giving a final assay concentration of 100µM. […] Column 1 in the assay plate contains no compound, as a negative control. An additional row with no compound is also used as a background. • 2. Prepare ATP by diluting 100mM stock to 925µM with assay buffer, and aliquot 5µl of diluted ATP to each well including controls (final assay concentration 370µM). • 3. Add 5µl of buffer to background row. • 4. Dilute enzyme preparation to 1.05µM with assay buffer, and aliquot 5µl into each compound well and to the negative control column. • 5. Collect the reagents to the bottom of the well, cover plate with plate seal and incubate overnight at 37degC. • 6. First thing in the morning prepare the Malachite Green Reagent. Add 2parts of Malachite Green Solution, 1 part of Polyvinyl Alcohol Solution, 1 part of Ammonium Molybdate Solution, and 2 parts of AR water. • 7. Invert to mix, and leave for approximately 1 hour until the colour turns from brown to golden yellow. • 8. Add 40µl of Malachite Green Reagent to each well, allow 5 mins for colour to develop. • 9. Add 5µl of Sodium Citrate Reagent to each well (see comment 2) • 10. Re-cover with plate seal and shake on plate shaker for at least 15 mins. • 11. Measure Absorbance at 620nm using a suitable plate reader (e.g. Victor, Perkin Elmer Life Sciences, Milton Keynes, UK). Under these conditions, the control absorbance is 0.9 to 1.4, and the background is 0.2-0.35 giving a signal to noise ratio of -12. The Z' factor calculated from data obtained using these conditions is between 0.6 and 0.9.
• (1) The polyvinyl alcohol dissolves in boiling water with difficulty and stirring for 2-3 h is required. • (2) The time interval between addition of the malachite green reagent and the sodium citrate should be kept as short as possible in order to reduce the non-enzymatic hydrolysis of ATP. Once the sodium citrate is added, the colour is stable for up to 4 h at room temperature. • (3) Compounds can be added to the assay plates using a Biomek FX Robot (Beckman Coulter). […]

T2 sequence (P02829 whole entry): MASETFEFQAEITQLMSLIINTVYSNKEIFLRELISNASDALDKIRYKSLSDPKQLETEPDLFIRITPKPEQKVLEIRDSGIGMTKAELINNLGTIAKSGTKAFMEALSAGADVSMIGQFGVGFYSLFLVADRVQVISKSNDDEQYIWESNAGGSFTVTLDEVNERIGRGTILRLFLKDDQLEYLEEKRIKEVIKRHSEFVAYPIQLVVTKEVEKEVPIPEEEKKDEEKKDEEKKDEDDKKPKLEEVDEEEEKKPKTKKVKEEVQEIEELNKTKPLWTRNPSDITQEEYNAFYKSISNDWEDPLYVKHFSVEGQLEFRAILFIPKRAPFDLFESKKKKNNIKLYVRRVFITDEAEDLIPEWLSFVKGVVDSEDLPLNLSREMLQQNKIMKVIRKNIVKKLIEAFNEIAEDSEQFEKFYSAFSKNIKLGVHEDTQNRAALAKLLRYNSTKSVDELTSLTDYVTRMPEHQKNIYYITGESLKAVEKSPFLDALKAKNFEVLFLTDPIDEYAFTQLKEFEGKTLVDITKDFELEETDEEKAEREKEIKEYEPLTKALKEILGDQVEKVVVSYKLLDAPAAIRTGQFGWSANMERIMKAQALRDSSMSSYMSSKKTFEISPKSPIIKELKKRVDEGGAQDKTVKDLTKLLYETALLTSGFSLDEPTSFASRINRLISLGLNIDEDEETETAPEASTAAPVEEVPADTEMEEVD

Row | Structure (SMILES) | IC50 [µM]
2 | Oc1ccccc1-c1oncc1-c1ccc2c(c1)OCCO2 [Example 7] | > 50
3 | COc1ccc(-c2c(C)noc2-c2cc(-c3cccnc3)c(O)cc2O)cc1 [Example 12] | > 50
4 | COc1ccc(-c2c(C)noc2-c2cc(C(=S)Nc3ccccc3)c(O)cc2O)cc1 [Example 18] | > 50
5 | COc1ccc(-c2cnoc2-c2cc(Cl)c(O)cc2O)cc1OC [Example 8] | > 50
6 | Cc1noc(-c2ccc(O)cc2O)c1-c1ccc(F)cc1 [Example 9] | < 50
7 | Cc1cc(O)cc(O)c1-c1onc(C(F)(F)F)c1-c1cscn1 [Example 12d] | < 50
8 | CCc1cc(-c2oncc2-c2ccc(OC)c(OC)c2)c(O)cc1O [Example 11] | < 50
9 | Cc1noc(-c2ccc(O)cc2O)c1-c1ccc2c(c1)OCCO2 [Example 5] | > 50
10 | Oc1ccc(Cl)cc1-c1oncc1-c1ccc2c(c1)OCCO2 [Example 6] | > 50
11 | CCCCCc1noc(-c2ccc(O)cc2O)c1-c1ccc(OC)cc1 [Example 21] | < 50

system: not listed separately; test: Sulforhodamine B (SRB) growth inhibition / growth arrest assay; type: cell-based; conditions: cell line not named
Experimental: A growth inhibition assay was also employed for the evaluation of candidate HSP90 inhibitors: • Assessment of cytotoxicity by Sulforhodamine B (SRB) assay: calculation of 50% inhibitory concentration (IC50).
• 1) Determine cell number by haemocytometer. • 2) Using an 8 channel multipipettor, add 160µl of the cell suspension (3600 cells/well or 2 x 10^4 cells/ml) to each well of a 96-well microtitre plate. • 3) Incubate overnight at 37°C in a CO2 incubator. […]
• 8) Tip off medium into sink and immerse plate slowly into 10% ice cold trichloroacetic acid (TCA). […] Leave for 15 mins. • 12)Wash off unbound SRB stain with four washes of 1% acetic acid. • 13)Dry plates in incubator. • 14)Solubilise SRB using 100µl of 10mM Tris base and put plates on plate shaker for 5 mins. • 15)Determine absorbance at 540nm using a plate reader. Calculate mean absorbance for quadruplicate wells and express as a percentage of value for control, untreated wells. • 16)Plot % absorbance values versus log drug concentration and determine the IC50. […]

Row | Structure (SMILES) | IC50 [µM]
12 | COc1ccc(-c2c(C)noc2-c2cc(Br)c(O)cc2O)cc1 [Example 2, 4-Bromo-6-[4-(4-methoxy-phenyl)-3-methyl-isoxazol-5-yl]-benzene-1,3-diol] | < 50
